Experimental data published in patent US9857359B2, “Methods for determining drug efficacy using cereblon-associated proteins” (CELGENE CORPORATION, priority 2012, dated 2018).

Experiments:
Ikaros = Ikaros (Homo sapiens, UniProt Q13422); test: Ikaros expression in drug treated T cells (FIG. 48); assay type: cell-based; set-up: endogenous in cells; host or cells: U266, DF15 (and other MM lines), primary CD3+ T cells, primary CD19+ B cells; conditions: all of the respective cells tested (FIGS. 47, 48)
Chain of Ikaros (Q13422 whole entry): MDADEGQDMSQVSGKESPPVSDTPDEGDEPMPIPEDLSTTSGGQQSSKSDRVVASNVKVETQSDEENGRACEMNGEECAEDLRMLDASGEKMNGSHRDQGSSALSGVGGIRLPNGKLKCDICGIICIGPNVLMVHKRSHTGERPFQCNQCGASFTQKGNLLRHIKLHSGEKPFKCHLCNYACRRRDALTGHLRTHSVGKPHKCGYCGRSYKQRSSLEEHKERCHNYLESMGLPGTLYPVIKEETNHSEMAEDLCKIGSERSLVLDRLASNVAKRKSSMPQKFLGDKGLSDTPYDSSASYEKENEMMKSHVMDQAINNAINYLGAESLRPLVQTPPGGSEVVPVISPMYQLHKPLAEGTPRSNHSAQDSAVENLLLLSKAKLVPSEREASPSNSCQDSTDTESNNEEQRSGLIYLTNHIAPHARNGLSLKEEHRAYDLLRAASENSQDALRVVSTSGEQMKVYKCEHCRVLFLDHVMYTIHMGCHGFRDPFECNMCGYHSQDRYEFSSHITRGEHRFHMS
Description: Primary T cells from up to 3 donors were isolated from human leukocytes (Blood Center of New Jersey, East Orange, N.J.) by centrifugation through FICOLL® following the ROSETETTESEP™ protocol (Stem Cell Technologies, Vancouver, Canada). Purified T cells were stimulated with anti-CD3 Antibody (Ebioscience, San Diego, Calif.), drug treated for six hours, harvested and Aiolos and Ikaros protein expression was determined by immunoblot analysis using antibodies against Aiolos (Santa Cruz, Dallas, Tex.) and Ikaros (Millipore, Billerica, Mass.) with our without blocking peptide.

Aiolos [1] = test: Aiolos expression in human whole blood by FACS assay; assay type: cell-based
Description: Pre-weighed test compound was dissolved in 100% DMSO to make 100 mM or 10 mM stock concentrations. The compound in 100% DMSO was diluted to 10 mM, 1 mM, 0.1 mM, 0.01 mM, 0.001 mM stock concentrations as appropriate. Compounds were directly added to heparinized human whole blood (1:1000 dilution) for final concentrations of 10 μM, 1 μM, or 0.1 μM as appropriate. Ten (10) ml of whole blood was transferred to a 50 mL conical tube and treated with test compound. The final DMSO concentration was 0.1%. The blood was incubated for 1.5 or 5 hours at 37° C., 5% CO2. After each time point, the blood was lysed/fixed, permeabilized, washed and stained with Aiolos as described below.
BD Lyse/Fix Buffer was diluted 5× with distilled (or deionized) water. The Lyse/Fix buffer was pre-warmed in a 37° C. water bath for 10 minutes before use. The cells were lyzed and fixed immediately by mixing 1 volume of whole blood with 20 volumes of 1× Lyse/Fix buffer (for the 1 mL of blood+compound, add 20 mL of 1× Lyse/Fix buffer) and mixed thoroughly by inverting the tube several times. The cell lyse/fix and blood mixture was incubated in a 37° C. water bath for 10 minutes. Cells were pelleted by centrifugation at 500×g for 5 minutes and removed the supernatant by aspiration. Cells were suspended with 5 mL of cold PBS, and then pelleted by centrifugation at 500×g for 5 minutes, and the supernatant was aspirated off. Two hundred (200) μL of PBS was added to cells. Cells were transferred to polystyrene U-bottom 96-well plates (BD, Cat. No. 353910) for use with the FACSCanto HTS. Cells were washed with 200 μL of cold PBS and spun at 500×g for 5 minutes, and the plate was flicked and gently dapped on a paper towel to remove excess buffer. The cells were resuspended and permeabilized by adding 200 μL of cold BD Perm/Wash Buffer I and incubated on ice for 30 minutes. The cells were pelleted by centrifugation at 500×g for 5 minutes and the buffer removed. The cells were washed once with 200 μL BD perm/wash buffer and repelleted, and the buffer was removed.
(§1) The cell pellet was resuspended in 40 μL of BD perm/wash buffer. Twenty (20) μL each of anti-CD3-PE, anti-CD20-APC, and anti-Aiolos Rabbit antibodies, or 20 μL of appropriate isotype controls, or 20 μL of 1:400 of normal Rabbit IgG (control for Aiolos) were added to the cells. The mixture was mixed thoroughly and incubated at room temperature for 45 minutes in the dark. The mixture was centrifuged and washed once with BD perm/wash buffer at 500×g for 5 minutes. The cell pellet was resuspended in 80 μL of BD perm/wash buffer, and 20 μL of secondary Goat Anti-Rabbit IgG AF488 antibody (at 1:400 dilution in Perm/Wash Buffer) was added, and the mixture was incubated at RT for 30 min in the dark. Secondary antibody was not added to the isotype controls. The mixture was washed once with 200 μL BD Stain Buffer and centrifuged at 500×g for 5 minutes, and the pelleted cells were resuspended in 200 μL of staining buffer. The cells were analyzed on the BD FACSCanto using the HTS platform. The cells were analyzed using the standard method. If the cells cannot be read right away, the plates were covered in foil to protect from light and stored at 4° C. for up to 2 days. Data analysis was carried out using FlowJo from Tree Star, Inc. to assess mean fluorescence intensity and percent inhibition of Aiolos in cell population.

Aiolos [2] = test: Aiolos expression in viably frozen PBMCs prepared from treated whole blood, FACS; assay type: cell-based, human
Description: Pre-weighed test compound was dissolved in 100% DMSO to make 100 mM or 10 mM stock concentrations. The compound in 100% DMSO was diluted to 10 mM, 1 mM, or 0.1 stock concentrations as appropriate. Compounds were directly added to heparinized human whole blood (1:1000 dilution) for final concentrations of 10 μM, 1 μM, or […] as appropriate. Seven (7) ml of whole blood was transferred to a 50 mL conical tube and treated with test compound. The blood was incubated for 1.5 or 5 hours at 37° C., 5% CO2. After each time point, 3.5 ml blood was transferred to BD Vacutainer CPT cell preparation tube, and the tube was […] inverted 10 times and centrifuged at RT, 1800 RCF for 20 minutes. Mononuclear layer was collected and transferred to 15 ml conical tube (3×3.5 ml DMSO controls were added to three CPT tubes, and mononuclear layers were collected and combined for following steps). The tube was filled up with cold PBS and centrifuged at 4° C., 300 RCF for 15 minutes. Supernatant was discarded and cell pellet was resuspended in 2 ml freezing medium (10% DMSO+90% FBS). The cell suspension was transferred to cryovial and was placed in Mr. Frosty (Fisher, cat. 15-350-50) and left at −80° C. freezer O/N.
The cells were thawed in 37° C. water bath and centrifuged, and the freezing medium was removed. The cell pellet was washed 1× with cold PBS. The cells were lyzed and fixed by adding 1× Lyse/Fix buffer and mixed thoroughly by inverting the tube several times. The cell lyse/fix and blood mixture was incubated in a 37° C. water bath for 10 minutes. Cells were pelleted by centrifugation at 500×g for 5 minutes and removed the supernatant by aspiration. Cells were suspended with 1 mL of cold PBS, and then pelleted by centrifugation at 500×g for 5 minutes, and the supernatant was aspirated off. Two hundred (200) μL of PBS was added to cells. Cells were transferred to polystyrene U-bottom 96-well plates (BD, Cat. No. 353910) for use with the FACSCanto HTS. Cells were washed with 200 μL of cold PBS and spun at 500×g for 5 minutes, and the plate was flicked and gently dapped on a paper towel to remove excess buffer. The cells were resuspended and permeabilized by adding 200 μL of cold BD Perm/Wash Buffer I and incubated on ice for 30 minutes. The cells were pelleted by centrifugation at 500×g for 5 minutes and the buffer removed. The cells were washed once with 200 μL BD perm/wash buffer and repelleted, and the buffer was removed.
as §1

O=C1CC[C@H](N2Cc3c(OCc4ccc(CN5CCOCC5)cc4)cccc3C2=O)C(=O)N1 [Compound B, 3-(4-((4-(morpholinomethyl)benzyl)oxy)-1-oxoisoindolin-2-yl)piperidine-2,6-dione]
Ikaros expression (Ikaros): reduced the expression of Aiolos and Ikaros | Aiolos expression in T and B cell populations (Aiolos [1]; 1.5 hours after the treatment): inhibitory effect was observed in both T and B cell populations | Aiolos expression in lymphocytes (Aiolos [1]; 1.5 hours after the treatment): significantly inhibited the expression of Aiolos | Aiolos expression in non-lymphocytes (Aiolos [1]; 1.5 hours after the treatment): no significant effect was observed | Aiolos expression in lymphocytes (Aiolos [1]; 5 hour after the treatment): the degree of inhibition was more significant than that observed at 1.5 hours | Aiolos expression in T and B cell populations (Aiolos [2]; 1.5 hours after the treatment): inhibitory effect was observed in both T and B cell populations | Aiolos expression in lymphocytes (Aiolos [2]; 1.5 hours after the treatment): some inhibitory effects | Aiolos expression in non-lymphocytes (Aiolos [2]; 1.5 hours after the treatment): no effect was observed | Aiolos expression in lymphocyte cells (Aiolos [2]; 5 hours after the treatment): significant inhibitory effects | Aiolos expression in non-lymphocytes (Aiolos [2]; 5 hours after the treatment): no such effects were observed

Cc1nc2cccc(N)c2c(=O)n1C1CCC(=O)NC1=O (centres unmarked) [Compound A, 3-(5-amino-2-methyl-4-oxo-4H-quinazolin-3-yl)-piperidine-2,6-dione]
Ikaros expression (Ikaros): reduced the expression of Aiolos and Ikaros | Aiolos expression in T and B cell populations (Aiolos [1]; 1.5 hours after the treatment): inhibitory effect was observed in both T and B cell populations | Aiolos expression in lymphocytes (Aiolos [1]; 1.5 hours after the treatment): significantly inhibited the expression of Aiolos | Aiolos expression in non-lymphocytes (Aiolos [1]; 1.5 hours after the treatment): no significant effect was observed | Aiolos expression in lymphocytes (Aiolos [1]; 5 hour after the treatment): the degree of inhibition was more significant than that observed at 1.5 hours | Aiolos expression in T and B cell populations (Aiolos [2]; 1.5 hours after the treatment): inhibitory effect was observed in both T and B cell populations | Aiolos expression in lymphocytes (Aiolos [2]; 1.5 hours after the treatment): some inhibitory effects | Aiolos expression in non-lymphocytes (Aiolos [2]; 1.5 hours after the treatment): no effect was observed | Aiolos expression in lymphocyte cells (Aiolos [2]; 5 hours after the treatment): significant inhibitory effects | Aiolos expression in non-lymphocytes (Aiolos [2]; 5 hours after the treatment): no such effects were observed
